The results in this text go back to patent US20030129753A1, “Chemical screening method” (priority 2002, published 2003).

The nature of this data set: solubility in ethanol by conventional methods. The class given is physicochemical. The following applies: organic solvent or mixture, separate experiments by conventional methods. How it is done:
The invention was tested on the sulfisoxazole/polyvinylpyrrolidone system in ethanol where sulfisoxazole was the active ingredient and polyvinylpyrrolidone was the carrier of choice. The total time required to evaporate ethanol for each sample was less than 30 seconds. […] This information is important because these solubility parameters determine the minimum amount (volume) of solvent required to co-dissolve the active ingredient and the carrier molecules. Next eight ethanol solutions were prepared of different sulfisoxazole to polyvinylpyrrolidone weight (molar) ratios.

Converted amounts (≈) assume the structure as drawn.

As a reminder, the solubility is the dissolved amount per volume that the medium holds. Turning to `Cc1noc(NS(=O)(=O)c2ccc(N)cc2)c1C` [sulfisoxazole], the solubility amounted to 16 mg/mL (≈ 59.9 mM).
